These results are taken from patent US20090093541A1, “MELANIN ELIMINATOR PREPARATION” (OGA RESEARCH, INC, priority 2002, published 2009).

One assay deals with blotches and lentigines. Briefly: Lotion applied to blotches and lentigines (general description). The following applies: lotion containing 0.5 (w/w)%; applied one or two times daily; about one month. In kind it is in vivo, human. An excerpt:
The effect was also noted on blotches formed on the acne scars, showing clear difference compared with the pre-treatment conditions.

Assay [1] relates to lentigo (1-mm diameter) on the arm. Briefly: Test Example 5: topical application to a lentigo on the arm. The class given is in vivo, human. The following applies: topically applied twice daily, preparation according to Preparation Example 1, two months later. On the procedure:
To a lentigo (1-mm diameter) on the arm was topically applied twice daily a preparation that was prepared according to Preparation Example 1 except that N-(6,8-dimercaptooctanoyl)histidine sodium/zinc chelate of Example 2 was used instead of N-(6,8-dimercaptooctanoyl)anthranilic acid sodium/zinc chelate of Example 2.

With “N-(6,8-dimercaptooctanoyl)-3-aminopropionic acid sodium/zinc chelate compound [Example 10]”, the “melanin eliminating effect on blotches and lentigines (fading from black to pale umber or falling off as a scab)” value with blotches and lentigines is “satisfactory effects”.
For “N-(6,8-dimercaptooctanoyl)anthranilic acid sodium/zinc chelate compound [Reference Example 8]”, the “melanin eliminating effect on blotches and lentigines (fading from black to pale umber or falling off as a scab)” value with blotches and lentigines is recorded as “satisfactory effects”.
Turning to “N-(6,8-dimercaptooctanoyl)histidine sodium/zinc chelate compound [Example 2]”, the “elimination of black color of lentigo” value in assay [1] is “the black color was found eliminated leaving a subtle scar behind”.
